Experimental data reported in US20030022856A1, “Method for sustained release local delivery of drugs for ablation of unwanted tissue” (The Regents Of The University of Michigan, priority 2001, published 2003).

Tested on: organ cultured adipose tissue (epididymal fat tissue)
Assay: Adipose organ culture apoptosis assay (Bax immunostaining)
Assay type: cell-based, rat
Conditions: seven days incubation, 1 μg TNF-α
Description: Epididymal fat tissue was excised and cut into pieces (1 cm^3), and cultured. Briefly, tissue was placed in Dulbecco's Modified Eagle Medium containing 10% fetal bovine serum and penicillin/streptomycin, and incubated at 37° C. Samples (n=3) were injected with PBS, TNF-α protein (1 μg), blank microspheres, or microspheres containing TNF-α (total 1 μg TNF-α) and incubated at 37° C. After 3 or 7 days, the tissue was rinsed 1× with PBS, placed in 3.7% formaldehyde overnight and stored in 70% ethanol prior to sectioning for histology.
Tissue samples were bisected and subjected to butyl processing and paraffinization by standard procedures, at the histology core facility at the University of Michigan School of Dentistry. This process removes all lipids droplets from the tissue, enabling reproducible and rapid staining. […] Samples were counterstained with hematoxylin, imaged using a Nikon Eclipse E800, and Bax positive and negative cells were counted manually from at least 10 randomly chosen fields. Data were subjected to statistical analysis to determine the significance of the difference (P<0.05) among the measured population proportions of Bax positive cells, using a binomial equation. […]

Question: How did the “Bax staining of adipose tissue” value turn out when “tumor necrosis factor-alpha [TNF-α protein]” was run?
Answer: Its value is “high levels of staining”.

Question: What about the “percentage of Bax positive cells (apoptotic cells)” value (1 cm^3 explanted tissue) of the same substance?
Answer: The value was 54%.
